Assay results published in patent US4927658A, “Tris-hydroxymethyl alkane esters as low calorie fat mimetics” (Nabisco Brands, Inc., priority 1989, dated 1990).
Blank lines part the entries; values can stand above or below the compound they belong to.

How the values were obtained:
[1] = in vivo animal feeding study for caloric availability; parameters: species or system male Sprague-Dawley rats; settings: rats, diet of 50% fort and 21% test compound, 14 days
Description: This example illustrates how the novel fat mimetics of this invention are screened for caloric availability by a carefully controlled in vivo animal feeding study.
An experimental relationship between total calories ingested and animal body weight gain is established by monitoring the body weight gain associated with consumption of a nutritionally balanced diet containing varying concentrations of a reference substance such as corn oil which has a known caloric availability. Correlations between total calories ingested and body weight gain are excellent (r=0.99).
Caloric availability of an unknown substance is evaluated by substituting a specific weight of the unknown substance for the reference substance and observing the body weight gain. The gain in body weight is equated to a total number of calories using the correlation previously established for the reference data. The estimated number of calories ingested are divided by the weight of unknown substance to give the apparent calories per gram for the unknown substance. Generally speaking, in these bioavailability studies, the degree of perianal pelt soiling correlates with reduced bioavailability.
The test animals are six-week-old male Sprague-Dawley rats obtained from the Portage, Mich. facility of the Charles River Laboratories, Inc. After acclamation for 15 days, the test duration is 14 days. […]

[2] = test system: porcine pancreatic lipase; assay: in vitro digestibility using pancreatic lipase; format: in vitro ADME; settings: 37° C., pH 7.1
Protocol: This example outlines the procedure for estimating the in vitro digestibility of the synthetic fat mimetics of this invention using pancreatic lipase.
1. Buffer: A pH 7.1 phosphate buffer is prepared by dissolving 6.8 g. KH2 PO4 in 1 L. of millipore filtered water (to yield 0.05M phosphate). Fifty mg. Ca(NO3)2 and 5.0 g. cholic acid (Na salt, an ox bile isolate from Sigma) are added to give 300 microM Ca^++ and 0.5% cholic acid in 0.05M phosphate. The pH is adjusted to approximately 7.1 with solid NaOH. Several drops of Baker "Resi-analyzed" toluene are added to prevent bacterial growth during storage at 3°-5° C.
2. Lipase: About 15 mg./mL commercial porcine pancreatic lipase from U.S. Biochemical Corporation is dissolved in buffer.
3. Substrates and Standards: A 1.0 mL volumetric flask is charged with an amount of lipid substrate (test substance or standard) calculated to give a concentration of 200 nanomoles per microliter in Baker "Resi-analyzed" toluene. (The proper concentration may be approximated by […] the molecular weight of the lipid in question, dividing by 10, and diluting to the mark; this yields about 200 nanomoles per microliter.) This preparation affords the substrate to be used in the hydrolysis reactions. […]

[3] = test system: pancreatic lipase; settings: Minich, col. 4, lines 62-64; cited from earlier work
[4] = rat, in vivo; cited from earlier work

caloric availability upon being metabolized [1]: about 3.3 kcal/gram
hydrolysis by pancreatic lipase ([2]; after three hours contact with pancreatic lipase): limited hydrolysis
Compound: CCCCCCCC/C=C\CCCCCCCC(=O)OCC(C)(COC(=O)CCCCCCC/C=C\CCCCCCCC)COC(=O)CCCCCCC/C=C\CCCCCCCC [Example 1, 1,1,1-Tris hydroxymethylethane trioleate]

Compound: CCCCCCCC(=O)OCC(COC(=O)CCCCCCC)(COC(=O)CCCCCCC)COC(=O)CCCCCCC [pentaerythritol tetracaprylate]
hydrolysis by pancreatic lipase [3]: not attacked, hydrolyzed

hydrolysis by pancreatic lipase ([2]; triglyceride control, in 10 minutes): substantially hydrolyzed
Compound: CCCCCCCC/C=C\CCCCCCCC(=O)OCC(COC(=O)CCCCCCC/C=C\CCCCCCCC)OC(=O)CCCCCCC/C=C\CCCCCCCC [triolein]

Compound: corn oil
caloric availability of reference [4]: 9.0 calories/gram
